Like-named read-outs stand apart in the source and are kept apart here.
Tests used:
[1] = tested on: Male, Swiss Webster mice; assay: Dose response for the behavioral toxic effects of cocaine (convulsions, death)
[2] = tested on: Male, Swiss Webster mice; assay: Dose response for the locomotor stimulatory effects of cocaine; type: in vivo; conditions: cocaine 0-20 mg/kg i.p., 30 min
[3] = tested on: Male, Swiss Webster mice; assay: Shift of the cocaine convulsion dose curve by sigma receptor agonists; conditions: saline pre-treatment, cocaine 0-60 mg/kg i.p.
[4] = tested on: Male, Swiss Webster mice; assay: Attenuation of cocaine-induced locomotor activity; type: in vivo; conditions: for cocaine stimulated locomotor activity after pre-treatment: same ligand doses as baseline test, 15 min before cocaine 10 mg/kg i.p., 30 min, ANOVA
[5] = molecular target: α1-adrenoceptors; assay: α1-adrenoceptor competition binding ([3H]prazosin); conditions: rat brain homogenates
[6] = molecular target: T1, Dopamine (D2) receptors (Rattus norvegicus, UniProt P61169); assay: Dopamine D2 receptor competition binding ([3H](−)sulpiride)
T1 construct: from tissue; host or cells: rat brain homogenate / P2 membranes
T1 sequence (P61169 whole entry): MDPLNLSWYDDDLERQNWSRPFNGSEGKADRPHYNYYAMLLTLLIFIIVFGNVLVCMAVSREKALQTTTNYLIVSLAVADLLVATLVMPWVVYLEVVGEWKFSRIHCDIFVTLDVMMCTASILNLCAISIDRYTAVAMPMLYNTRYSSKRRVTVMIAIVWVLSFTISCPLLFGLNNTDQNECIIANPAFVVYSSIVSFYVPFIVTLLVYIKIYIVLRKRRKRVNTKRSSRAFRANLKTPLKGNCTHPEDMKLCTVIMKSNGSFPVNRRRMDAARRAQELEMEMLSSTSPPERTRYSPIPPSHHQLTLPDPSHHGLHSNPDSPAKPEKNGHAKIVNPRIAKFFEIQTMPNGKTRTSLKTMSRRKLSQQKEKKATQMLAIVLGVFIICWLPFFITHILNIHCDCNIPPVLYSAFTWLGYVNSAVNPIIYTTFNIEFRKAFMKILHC

[7] = tested on: Male, Swiss Webster mice; assay: Effects of sigma ligands alone on baseline locomotor activity; type: in vivo; conditions: 30 min; i.p. mg/kg: BD1008 1, BD1067 5, BD1047 30, LR172 5, BD1018 30, BD1063 30, LR132 30, LR176 10, YZ011 0.1, YZ027 1, YZ029 5
[8] = molecular target: PCP sites on NMDA receptors (Rattus norvegicus, UniProt P35439); assay: PCP site competition binding ([3H]TCP)
[9] = tested on: rat red nucleus; assay: Acute dystonic reaction after microinjection into the rat red nucleus; type: in vivo; conditions: alone and against sigma agonists such as DTG
[10] = molecular target: T2, σ1 receptors (Cavia porcellus, UniProt Q60492); assay: σ1 receptor competition binding; parameters: species or system guinea pig
T2 construct: Crude P2 membranes were prepared from guinea pig brain, rat brain, or rat liver; from tissue; host or cells: guinea pig brain (crude P2 membranes)
T2 sequence (Q60492 whole entry): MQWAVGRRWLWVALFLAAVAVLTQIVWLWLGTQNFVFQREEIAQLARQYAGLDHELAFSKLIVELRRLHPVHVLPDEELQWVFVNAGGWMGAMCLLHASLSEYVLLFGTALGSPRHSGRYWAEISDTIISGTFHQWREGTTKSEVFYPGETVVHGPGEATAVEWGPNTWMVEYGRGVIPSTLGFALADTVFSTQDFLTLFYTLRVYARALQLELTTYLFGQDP

[11] = molecular target: T3, muscarinic cholinergic receptors (Rattus norvegicus, UniProt P08482); assay: Muscarinic cholinergic receptor competition binding
T3 construct: from tissue; host or cells: rat brain homogenate / P2 membranes
T3 sequence (P08482 1-460): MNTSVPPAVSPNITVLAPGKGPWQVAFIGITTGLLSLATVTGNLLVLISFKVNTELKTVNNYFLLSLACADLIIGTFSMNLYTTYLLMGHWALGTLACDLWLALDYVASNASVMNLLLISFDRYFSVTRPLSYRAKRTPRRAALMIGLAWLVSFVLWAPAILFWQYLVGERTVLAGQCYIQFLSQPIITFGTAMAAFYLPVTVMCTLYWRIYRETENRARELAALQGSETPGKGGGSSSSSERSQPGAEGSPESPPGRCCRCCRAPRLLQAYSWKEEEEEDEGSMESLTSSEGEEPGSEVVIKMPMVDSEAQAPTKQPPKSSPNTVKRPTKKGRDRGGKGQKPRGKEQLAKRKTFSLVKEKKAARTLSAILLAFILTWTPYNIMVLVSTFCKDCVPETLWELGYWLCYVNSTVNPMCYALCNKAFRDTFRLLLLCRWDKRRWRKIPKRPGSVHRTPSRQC

[12] = molecular target: α2-adrenoceptors; assay: α2-adrenoceptor competition binding ([3H]clonidine); conditions: rat brain homogenates
[13] = molecular target: 5-HT2 receptors (Rattus norvegicus, UniProt P14842); assay: 5-HT2 receptor competition binding ([3H]ketanserin)
Chain of 5-HT2 receptors (P14842 whole entry): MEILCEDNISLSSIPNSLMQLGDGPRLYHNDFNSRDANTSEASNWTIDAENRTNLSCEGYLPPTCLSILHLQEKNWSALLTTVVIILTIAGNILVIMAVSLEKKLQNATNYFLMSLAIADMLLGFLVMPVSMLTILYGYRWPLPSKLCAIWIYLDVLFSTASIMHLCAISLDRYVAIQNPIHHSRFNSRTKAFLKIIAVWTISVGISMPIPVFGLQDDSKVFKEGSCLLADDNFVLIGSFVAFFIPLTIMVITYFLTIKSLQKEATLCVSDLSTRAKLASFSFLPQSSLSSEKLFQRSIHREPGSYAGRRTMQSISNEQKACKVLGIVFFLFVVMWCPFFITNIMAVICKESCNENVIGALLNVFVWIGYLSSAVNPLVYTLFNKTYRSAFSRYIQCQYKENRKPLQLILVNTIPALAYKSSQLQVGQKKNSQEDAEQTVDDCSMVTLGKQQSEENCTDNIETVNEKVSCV

[14] = molecular target: β-adrenoceptors; assay: β-adrenoceptor competition binding ([3H]dihydroalprenolol); conditions: rat brain homogenates
[15] = molecular target: 5-HT1 receptors; assay: 5-HT1 receptor competition binding ([3H]5-HT); conditions: rat brain homogenates
[16] = tested on: σ1 receptors; assay: Antisense oligodeoxynucleotide (i.c.v.) against cocaine-induced convulsions; type: in vivo, mouse
[17] = tested on: σ1 receptors; assay: Antisense oligodeoxynucleotide (i.c.v.), basal locomotor activity; type: in vivo, mouse; conditions: i.c.v. antisense treatment, 30 min before the cocaine challenge
[18] = tested on: σ1 receptors; assay: Antisense oligodeoxynucleotide (i.c.v.) against locomotor stimulatory effects of cocaine; type: in vivo, mouse
[19] = molecular target: T4, σ2 sites (Rattus norvegicus, UniProt Q5U3Y7); assay: σ2 receptor competition binding; conditions: Table 1; [3H]DTG plus dextrallorphan, rat liver; mean±SEM, minimum of two independent assays
T4 construct: Crude P2 membranes were prepared from guinea pig brain, rat brain, or rat liver; from tissue; host or cells: rat liver (crude P2 membranes)
T4 sequence (Q5U3Y7 1-176): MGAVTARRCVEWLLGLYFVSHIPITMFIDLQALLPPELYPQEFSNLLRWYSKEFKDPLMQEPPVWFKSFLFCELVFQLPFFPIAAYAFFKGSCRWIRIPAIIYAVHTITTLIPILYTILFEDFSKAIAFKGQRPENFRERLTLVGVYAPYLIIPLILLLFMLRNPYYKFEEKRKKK

[20] = after lethal dose of cocaine 125 mg/kg i.p.
[21] = cocaine alone 0-150 mg/kg i.p., observed 30 min
[22] = NYU sequences, 10 μg/5 μl i.c.v. on Days 1, 2 and 4, cocaine 60 mg/kg i.p. on Day 5
[23] = rat brain homogenates, [3H](−)sulpiride, read-out: Dopamine (D2)
[24] = rat brain homogenates, [3H]TCP, read-out: NMDA (PCP)
[25] = rat brain homogenates, [3H]ketanserin, read-out: 5-HT2

COC(=O)[C@H]1[C@@H](OC(=O)c2ccccc2)C[C@@H]2CC[C@H]1N2C [cocaine]
time at which mice are dead [1, 20]: about 4.5 minutes
time at which mice begin convulsing [1, 20]: approximately 2 minutes
ED50 for cocaine-induced convulsions [1, 21]: 59 mg/kg, i.p.
LD50 for cocaine-induced lethality [1, 21]: 108 mg/kg, i.p.
dose that produced the peak level of locomotor activity [2]: 10 mg/kg, i.p.
ED50 for cocaine-induced convulsions [3]: 58 mg/kg, i.p.
ED50 for the locomotor stimulatory effects of cocaine ([4]; saline pre-treatment, cocaine 0-20 mg/kg i.p.): 6 mg/kg, i.p.

CN(C)CCN(C)CCc1ccc(Cl)c(Cl)c1 [BD1047]
IC50 [5]: > 10 µM
IC50 [6]: > 10 µM
baseline horizontal locomotor activity versus saline [7]: no significant difference
cocaine stimulated locomotor activity after pre-treatment [4]: significant reduction in cocaine stimulated locomotor activity
IC50 [8]: > 10 µM
agonist versus antagonist designation (dystonic head postures) [9]: functional antagonists
Ki [10]: 0.0009 ± 0.00014 µM
IC50 [11]: 8 ± 1 µM
IC50 [12]: > 10 µM
IC50 [13]: 4.67 ± 2.63 µM
IC50 [14]: 0.145 ± 0.1 µM
IC50 [15]: > 10 µM

5′-GAGTGCCCAGCCACAACCAGG-3′ (all phosphorothioate, sugars by position and methylation of C not given here) [NYU antisense, 21-mer phosphorothioate antisense oligodeoxynucleotide against mouse σ1 receptors (King et al., 1997)]
effect on cocaine-induced convulsions [16, 22]: protected against the convulsive effects of cocaine
basal locomotor activity [17]: no effects on basal locomotor activity
effect on locomotor stimulatory effects of cocaine ([18]; NYU, 10 μg/5 μl i.c.v. on Days 1, 2 and 4, cocaine 10 mg/kg i.p. on Day 5): attenuates the locomotor stimulatory effects of cocaine

CCCN(CCc1ccc(Cl)c(Cl)c1)CCN1CCCCC1 [BD1069]
IC50 [6, 23]: > 10 µM
Ki [19]: 0.545 ± 0.139 µM
IC50 [8, 24]: > 10 µM
agonist versus antagonist designation (dystonic head postures) [9]: variable, partial agonist actions
Ki ([10]; read-out: σ1): 0.001 ± 0.0002 µM
IC50 [13, 25]: > 10 µM

5′-GAGGTCCCGACCACACACAGG-3′ (all phosphorothioate, sugars by position and methylation of C not given here) [mismatch]
effect on cocaine-induced convulsions [16, 22]: responses no different from the saline-treated animals

5′-CCCACGGCATCCCAGCGG-3′ (all phosphorothioate, sugars by position and methylation of C not given here) [McGill antisense, 18-mer phosphorothioate antisense oligodeoxynucleotide targeting the 5′-end of the σ1 receptor (Kitaichi et al., 1997)]
effect on cocaine-induced convulsions ([16]; McGill, 10 nmol/5 μl i.c.v. every 12 hours, four times, cocaine 60 mg/kg i.p. 12 hours after last): significant attenuation of cocaine-induced convulsions
basal locomotor activity [17]: no effects on basal locomotor activity
effect on locomotor stimulatory effects of cocaine ([18]; McGill, 10 nmol/5 μl i.c.v. every 12 hours, four times, cocaine 10 mg/kg i.p.): attenuates the locomotor stimulatory effects of cocaine

CN1CCN(CCc2ccc(Cl)c(Cl)c2)CC1 [BD1063]
IC50 [5]: > 10 µM
IC50 [6, 23]: > 10 µM
baseline horizontal locomotor activity versus saline [7]: no significant difference
cocaine stimulated locomotor activity after pre-treatment [4]: significant reduction in cocaine stimulated locomotor activity
IC50 [8, 24]: > 10 µM
agonist versus antagonist designation (dystonic head postures) [9]: functional antagonists
Ki [10]: 0.009 ± 0.001 µM
IC50 ([11]; rat brain homogenates, [3H]pirenzepine, read-out: mACh): 9.46 ± 0.75 µM
IC50 [12]: > 10 µM
IC50 [13, 25]: 2.55 ± 2.42 µM
IC50 [14]: > 10 µM
IC50 [15]: > 10 µM

Reference: US20030171347A1, “Sigma receptor antagonists having anti-cocaine properties and uses thereof” (priority 1998, published 2003)
